Reference: PubChem BioAssay AID2141 (Sanford-Burnham Center for Chemical Genomics, 2009)
The source made the active and inactive calls. The rule behind the calls is not given here.

Target: E3 ubiquitin-protein ligase SIAH1 (Homo sapiens) (UniProt Q8IUQ4)
Assay: inhibitors of Siah-1 ligand interaction – biochemical, TR-FRET, dose response (AID 2141)
Details: TR-FRET biochemical assay, Siah-1 binding

Structure (SMILES)	IC50
O=C(Nc1ccc(Oc2ccsc2C(=O)O)cc1)c1ccccc1F	inactive
O=C(Nc1ccccc1N1CCCCC1)c1ccc(-c2cccc(Cl)c2)o1	> 200 µM (inactive)
CCCCn1c(NC(=O)c2ccco2)c(S(=O)(=O)c2ccc(C)cc2)c2nc3ccccc3nc21	> 200 µM (inactive)
O=C1C=C(NCc2ccccc2)c2ccccc2C1=O	15.6 µM
NS(=O)(=O)c1ccc(NC(=O)c2cccc(N3C(=O)c4ccccc4C3=O)c2)cc1	10.6 µM
Cc1cc(C)n(-c2ccc(Cl)c(C(=O)Nc3cc(C(F)(F)F)ccc3Cl)n2)n1	> 200 µM (inactive)
Cc1ccc2c(c1)N(CC(=O)NCCc1ccc(Cl)cc1)C(=O)c1cccnc1O2	> 200 µM (inactive)
COC(=O)C1CC(=O)N(c2ccc(OCc3ccccc3Cl)cc2)C1 (stereo not drawn)	> 200 µM (inactive)
O=C(Nc1ccc(Cl)cc1)OCc1cn(-c2ccccc2)nn1	> 200 µM (inactive)
CC(C)(C)c1cc(-c2csc(Nc3ccccc3)[n+]2Cc2ccc(C(=O)O)cc2)cc(C(C)(C)C)c1O	6.69 µM
O=C1CCCC(O)=C1N=Nc1ccc(C(=O)O)cc1	< 1.56 µM
Cc1cc(C)nc(N=Nc2c(O)n(Cc3ccc(Cl)cc3)c3ccccc23)n1	> 200 µM (inactive)
c1ccc(C(c2ccccc2)N2CCN(C(c3ccccn3)c3nnnn3C3CCCC3)CC2)cc1 (stereo not drawn)	> 200 µM (inactive)
CN(Cc1c(C(=O)N/N=C/c2ccc(F)cc2)nnn1-c1nonc1N)C1CCCCC1	> 200 µM (inactive)
COCCCNc1c2c3c(cccc3[nH]c1=O)C(=O)c1ccccc1-2	> 200 µM (inactive)
COc1cccc(CCC(=O)N(C)C2CCCN(Cc3ccccc3F)C2)c1 (stereo not drawn)	> 200 µM (inactive)
O=S(=O)(Nc1cc2nc3ccccc3nc2n1Cc1ccccc1)c1ccc(Cl)cc1	6.05 µM
Cc1ccc(CNc2ccc(O)cc2)cc1	4.51 µM
CSc1n[nH]c(NCc2ccc(Cl)cc2)n1	> 200 µM (inactive)
Cc1ccc(-n2cccn2)c([C@@H]2C[C@H]3CN(C)C(=O)[C@]34CCCN24)c1	> 200 µM (inactive)
CC1CCN(S(=O)(=O)c2ccc3c(c2)c(=O)c(C(=O)NCc2ccccc2Cl)cn3C)CC1	> 200 µM (inactive)
COC(=O)c1cc(NC(=O)c2ccccc2)c(=O)oc1/C=C/Nc1ccc(Oc2ccccc2)cc1	> 200 µM (inactive)
CCCCN(Cc1cc2cc(OC)ccc2[nH]c1=O)S(=O)(=O)c1ccc(C)cc1	17.2 µM
O=C(O)CCCCN1C(=O)/C(=C\c2ccc(OCc3ccccc3)c(OCc3ccccc3)c2)SC1=S	4.03 µM
Oc1c(Br)cc(Br)cc1CNc1ccc(F)cc1	inactive

Structure (SMILES)	IC50
O=C(O)CCN1C(=O)/C(=C/c2cn(-c3ccccc3)nc2-c2cccs2)SC1=S	inactive
CN1/C(=C\C=C\C2=[N+](C)c3ccc4ccccc4c3C2(C)C)C(C)(C)c2ccccc21	> 200 µM (inactive)
Cc1ccc(C(=O)NC2CC3CCCC(C2)N3C(=O)NC2CCCCC2)cc1 (stereo not drawn)	> 200 µM (inactive)
COc1ccc(CCNC(=O)CCC(=O)N2CCOc3ccc(C)cc32)cc1OC	> 200 µM (inactive)
COC(=O)c1c(C(=O)OC)c2cccc3cc(-c4ccccc4)c4ccc1c4n32	14.6 µM
COC(=O)C1C=C2c3cccc4[nH]cc(c34)CC2N(C)C1 (stereo not drawn)	1.85 µM
Cc1ccc(S(=O)(=O)NN=C2C3CC4CC(C3)CC2C4)cc1[N+](=O)[O-]	> 200 µM (inactive)
Cc1cc(C)n2ncc(C(=O)Nc3ccc4c(c3)OCO4)c2n1	inactive
Cc1c(C(=O)O)sc2nc(CSc3ncc(C(F)(F)F)cc3Cl)[nH]c(=O)c12	7.65 µM
COC(=O)c1ccc2c(c1)C(C)(C)C(/C=C/c1ccccc1O)=[N+]2C	> 200 µM (inactive)
O=c1[nH]c2ccc(S(=O)(=O)N3CCCCC3)cc2s1	> 200 µM (inactive)
Cc1cc2cc(CNC(=O)c3ccc(S(=O)(=O)N4CCCCC4)cc3)ccc2n1C	6.45 µM
CS(=O)(=O)N1CCN(c2ccc([N+](=O)[O-])c(SCc3ccco3)c2)CC1	> 200 µM (inactive)
CC[n+]1c(/C=C/N(C)c2ccccc2)sc2ccc(Cl)cc21	> 200 µM (inactive)
C=CCc1cccc2cc(C(=O)Nc3ccc(CC(=O)O)cc3)c(=O)oc12	9.1 µM
CCN(CC)CCOC(=O)c1ccc(N/C=C(/C#N)c2nc(-c3ccc(OC)c(OC)c3)cs2)cc1	< 1.56 µM
Nc1c(C(=O)NCc2ccco2)c2nc3ccccc3nc2n1CCc1ccccc1	1.77 µM
CC1=CC(C)(C)N2C(=O)C(=Nc3ccc(O)cc3)c3cccc1c32	5.61 µM
CCOC(=O)C1(C)C=C(Nc2ccc(O)cc2)C(=O)N1c1ccc(O)cc1 (stereo not drawn)	inactive
Cc1cc(C)c(C#N)c(Nc2ccccc2C)n1	> 200 µM (inactive)
Cc1ccc(C(=O)COc2ccccc2C(=O)Nc2ccccc2)cc1	> 200 µM (inactive)
COC/C=C/C1=CC2=CC(=O)C(C)(OC(=O)c3ccco3)C(=O)C2=CO1 (stereo not drawn)	5.94 µM
Cc1ccc(S(=O)(=O)N2CCC(=O)N(C(COCc3cccc(C)c3)Cc3ccccc3)CC2)cc1 (stereo not drawn)	> 200 µM (inactive)
Cc1coc2c(C)c3oc(=O)c(CCC(=O)N[C@@H](C)C(=O)N[C@@H](Cc4ccccc4)C(=O)O)c(C)c3cc12	11.4 µM
Oc1ccc(N=Cc2ccc(OCc3ccccc3)cc2)cc1	3.74 µM

Structure (SMILES)	IC50
CC(C)COc1ccc(-c2nn(-c3ccccc3)cc2/C=C2/SC(=S)N(CC(=O)O)C2=O)cc1	3.91 µM
CCOC(=O)/C(C#N)=c1/s/c(=C2\C=Cc3ccccc3N2CC)c(=O)n1CC	> 200 µM (inactive)
O=C(CCn1ccc2ccccc21)NC1CCCc2ccccc21 (stereo not drawn)	> 200 µM (inactive)
O=C(NCc1c(F)cccc1F)c1cc(COc2c(F)cccc2F)on1	> 200 µM (inactive)
CC(=O)c1ccc(S(=O)(=O)Nc2ccc(-c3ccc4nnc(C)n4n3)cc2)cc1	9.93 µM
Cc1cc(Cl)ccc1NC(=O)CN1CCC(C(O)(c2ccccc2)c2ccccc2)CC1	> 200 µM (inactive)
C[N+]1(CCNC(=O)/C=N/O)CCCCC1	inactive
Cc1ccccc1-c1nc2c3ccccc3nc(=S)n2[nH]1	> 200 µM (inactive)
CCCCn1c(NS(=O)(=O)c2ccccc2)c(C(=O)OCC)c2nc3ccccc3nc21	2.16 µM
CCn1c(O)c(C=Nc2ccc(N3CCOCC3)cc2)c(=O)n(CC)c1=S	> 200 µM (inactive)
O=C(N/N=C/c1cccc(Br)c1)c1ccc(Br)cc1	2.54 µM
CCN(CC)c1ccc(C=N/C(C#N)=C(\N)C#N)cc1	> 200 µM (inactive)
Nc1c(C(=O)NCc2ccco2)c2nc3ccccc3nc2n1Cc1ccccc1	< 1.56 µM
Cc1ccc(NC(=O)CCC(=O)NNC(=O)c2ccccc2[N+](=O)[O-])c(C)c1	> 200 µM (inactive)
COc1cc(/C=C(\C#N)c2nc3ccccc3[nH]2)ccc1OC(=O)c1ccco1	6.22 µM
N#Cc1c(NC(=O)c2ccc(Br)o2)n(-c2ccccc2)c2nc3ccccc3nc12	3.73 µM
CC1CCN(C(=O)C2CCC(C)(C(=O)O)C2(C)C)CC1 (stereo not drawn)	> 200 µM (inactive)
CN1C(=O)NC(c2ccccc2[N+](=O)[O-])C2=C1CCCC2=O (stereo not drawn)	> 200 µM (inactive)
N#C/C(=C\c1c(F)cccc1Cl)C(=O)NC1CC1	> 200 µM (inactive)
CCOC(=O)C1=C(C)N=c2s/c(=C\c3ccc(OCC(=O)O)cc3)c(=O)n2C1c1ccc(Cl)cc1 (stereo not drawn)	> 200 µM (inactive)
Nc1ccc(O)c2c1C(=O)c1ccccc1C2=O	< 1.56 µM
CCC(C)[C@H](NC(=O)N1CCn2c1nc1ccccc12)C(=O)NCCc1ccc(OC)c(OC)c1 (stereo partly drawn)	> 200 µM (inactive)
S=c1[nH]nc(Cc2cccc3ccccc23)n1-c1ccccc1	> 200 µM (inactive)
CC(=O)Nc1ccc(N=Cc2c(O)c(C(=O)Nc3ccccc3)cc3ccccc23)cc1	> 200 µM (inactive)
O=S(=O)(O)c1cc(O)c2c(O)c(N=Nc3cc(Cl)ccc3O)c(S(=O)(=O)O)cc2c1	2.14 µM

Structure (SMILES)	IC50
Oc1ccc(N=Cc2sc3ccccc3c2Cl)cc1	14.9 µM
COc1ccc(-c2cnnn2-c2ccc(N)cc2)cc1OC	> 200 µM (inactive)
Nc1ccc(S(=O)(=O)Nc2ccc(S(N)(=O)=O)cc2)cc1	> 200 µM (inactive)
CCCCNc1nnc(Cc2ccc(Cl)cc2)c(=O)[nH]1	inactive
CCN(CC)c1ccc(/C=c2\sc3nnc(-c4ccccc4Cl)n3c2=O)cc1	> 200 µM (inactive)
CC(=O)c1ccc(NC(=O)CC2Nc3cccc4cccc(c34)NC2=O)cc1 (stereo not drawn)	8.51 µM
O=C(Nc1nc(-c2cc3ccccc3oc2=O)cs1)c1ccco1	2.39 µM
O=C(CSc1ccc(Br)c2cccc(Cl)c12)Nc1ccc(S(=O)(=O)Nc2nccs2)cc1	> 200 µM (inactive)
CCOC(=O)c1c(C)[nH]c2c1-c1ccccc1C(=O)C2=O	> 200 µM (inactive)
COc1ccc(CNC(=S)Nc2cc(OC)ccc2OC)cc1	> 200 µM (inactive)
COCCCn1c(N)c(C(=O)NCc2ccco2)c2nc3ccccc3nc21	2.31 µM
O=c1[nH]c(-c2ccc(F)cc2)nc2c1sc(=S)n2-c1ccccc1	> 200 µM (inactive)
CC1CCCCC1NC(=O)CCS(=O)(=O)c1ccc2c(c1)NC(=O)CO2 (stereo not drawn)	> 200 µM (inactive)
O=C(CCN1CCN(Cc2ccccc2)CC1)Nc1cccc(Cl)c1	> 200 µM (inactive)
COc1cccc2cc(C(=O)N3CCc4ccccc43)c(=O)oc12	> 200 µM (inactive)
O=C(Nc1cc([N+](=O)[O-])ccc1N1CCOCC1)c1cccs1	> 200 µM (inactive)
O=C(O)CCCNc1cc(N2CCN(C(=O)c3ccco3)CC2)c2noc3c2c1C(=O)c1ccccc1-3	5.41 µM
COC(=O)c1cccc(Cn2c(Cl)c(/C=N/NC(=O)c3ccccc3Cl)sc2=O)c1	19 µM
O=C(O)c1cc(O)c2c(c1)C(=O)c1cccc(O)c1C2=O	> 200 µM (inactive)
O=c1[nH]n(-c2ccc([N+](=O)[O-])cc2)c(=O)c2ccccc12	11.2 µM
CCCCNc1c2c3c(cccc3n(C)c1=O)C(=O)c1ccccc1-2	> 200 µM (inactive)
CC1=C(C#N)c2nc(N)c(C#N)c(C)c2/C1=C\c1ccc(-c2ccccc2C(=O)O)o1	> 200 µM (inactive)
CCCCn1c(NC(=O)c2ccc(Br)o2)c(C(=O)OCC)c2nc3ccccc3nc21	2.04 µM
